Experimental data published in patent US20040067923A1, “Use of biogenic estriol sulfamate prodrugs for treatment of autoimmune diseases” (priority 2002, published 2004).

Key:
[1] = test system: ovariectomised Wistar rats; conditions: 28 days
Procedure: Adult Wistar rats (6 months old) were ovariectomised and orally treated with estriol-3-O-sulfamate, reference compound and vehicle, respectively. Effects on bone mineral density after 28 days of treatment were determined.

[2] = test system: ovariectomised Wistar rats
Procedure: Adult Wistar rats (6 months old) were ovariectomised and orally treated with estriol-3-O-sulfamate, reference compound and vehicle, respectively. Effects of treatment on uterine weight after 28 days of treatment were determined.

[3] = Head et al., 1998; cited from earlier work
[4] = Heithecker et al., 1991; cited from earlier work
[5] = 12 mg/day, Lindsay et al., 1979; cited from earlier work
[6] = ovariectomised Wistar rats, 28 days

Compound | oral dose at which the loss in bone mineral density could be nearly restored [1] | systemic estrogen activity after oral application compared with estriol ([2]; conclusion based on Examples 1, 2 and 3) | oral dose to increase the uterine weight to basal level [2, 6] | potency relative to estriol administered orally, uterine weight test ([2]; ovariectomised Wistar rats, oral) | uterine weight dose relative to dose showing osteoprotective effects (tissue selectivity) ([2]; ovariectomised Wistar rats, oral, 28 days) | bone sparing effect at doses used for oral application of estriol-3-sulfamate [1] | oral amount needed to achieve comparable serum levels of estriol as after intravaginal application [3] | half-life [4] | osteoprotective effects after oral administration [5]
C[C@]12CC[C@@H]3c4ccc(OS(N)(=O)=O)cc4CC[C@H]3[C@@H]1C[C@@H](O)[C@@H]2O [estriol-3-sulfamate] | 10 μg/animal/day | much higher systemic estrogen activity | 100 μg/animal/day | about 3 fold | ten times more |  |  |  | 
C[C@]12CC[C@@H]3c4ccc(O)cc4CC[C@H]3[C@@H]1C[C@@H](O)[C@@H]2O [estriol] |  |  | 300 μg/animal/day |  |  | no bone sparing effect | ten times more | 1.5 to 5.3 h | not able to show the osteoprotective effects
